Counter-ions that a name gives are not always drawn. The source made the active and inactive calls.
Tests used:
[1] = biological target: T1, Oxysterols receptor LXR-beta (Homo sapiens, UniProt P55055); test: LXR agonists, Gal4 luciferase reporter, dose response, counter-screen for ssDAF-12 agonist project, cell-based, luminescence, HEK293, S. stercoralis campaign (AID 720737); type: functional; conditions: read-out: IC50 (the source's name)
T1 sequence (P55055 whole entry): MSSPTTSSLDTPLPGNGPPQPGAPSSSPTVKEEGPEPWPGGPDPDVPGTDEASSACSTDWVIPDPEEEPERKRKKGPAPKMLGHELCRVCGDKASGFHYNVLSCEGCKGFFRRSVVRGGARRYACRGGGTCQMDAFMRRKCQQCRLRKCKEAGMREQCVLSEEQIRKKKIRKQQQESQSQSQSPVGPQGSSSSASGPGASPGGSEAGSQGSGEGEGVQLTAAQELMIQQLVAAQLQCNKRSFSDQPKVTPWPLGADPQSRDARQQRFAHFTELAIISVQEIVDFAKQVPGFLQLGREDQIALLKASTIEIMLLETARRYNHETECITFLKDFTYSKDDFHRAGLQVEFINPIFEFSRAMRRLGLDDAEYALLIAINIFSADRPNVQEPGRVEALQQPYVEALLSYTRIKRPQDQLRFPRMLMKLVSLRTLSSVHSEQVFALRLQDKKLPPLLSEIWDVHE

[2] = Luminescence-based cell-based high throughput dose response assay to identify activators of the DAF-12 from the parasite S. stercoralis (ssDAF-12).; type: functional
[3] = biological target: T1, Oxysterols receptor LXR-beta; type: functional, cell-based
Protein skinhead-1 = biological target: T2, Protein skinhead-1 (Caenorhabditis elegans, UniProt P34707); type: functional
T2 sequence (P34707 whole entry): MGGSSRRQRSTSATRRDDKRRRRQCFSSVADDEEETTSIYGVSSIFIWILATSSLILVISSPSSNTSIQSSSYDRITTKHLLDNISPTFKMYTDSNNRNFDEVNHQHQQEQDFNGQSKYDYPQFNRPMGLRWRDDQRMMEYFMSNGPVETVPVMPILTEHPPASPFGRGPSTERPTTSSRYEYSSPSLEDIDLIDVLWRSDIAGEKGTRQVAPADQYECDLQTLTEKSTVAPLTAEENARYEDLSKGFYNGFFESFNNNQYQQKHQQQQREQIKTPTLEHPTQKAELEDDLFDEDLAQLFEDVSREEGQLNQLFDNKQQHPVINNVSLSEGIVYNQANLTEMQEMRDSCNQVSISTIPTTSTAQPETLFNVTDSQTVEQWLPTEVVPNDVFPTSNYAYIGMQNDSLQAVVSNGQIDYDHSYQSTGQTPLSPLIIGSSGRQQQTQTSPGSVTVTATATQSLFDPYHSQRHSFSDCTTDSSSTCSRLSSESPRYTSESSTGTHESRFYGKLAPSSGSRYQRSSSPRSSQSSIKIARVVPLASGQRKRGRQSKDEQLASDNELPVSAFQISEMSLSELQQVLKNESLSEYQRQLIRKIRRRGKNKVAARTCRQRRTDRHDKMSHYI

[4] = rise of 2N DNA cells, HeLa – IC50, dose response (AID 1117349); type: functional, cell-based
Paired box protein Pax-8 = Paired box protein Pax-8 (Homo sapiens, UniProt Q06710); test: PAX8 transcriptional activity inhibition in RMG-I – RMG-I cells, luciferase, cherry-pick, dose response (AID 687027); type: functional, cell-based;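 also: luciferase reporter driven by Pax8 target thyroperoxidase promoter measured by SteadyGlo luminescence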
Chain of Paired box protein Pax-8 (Q06710 whole entry): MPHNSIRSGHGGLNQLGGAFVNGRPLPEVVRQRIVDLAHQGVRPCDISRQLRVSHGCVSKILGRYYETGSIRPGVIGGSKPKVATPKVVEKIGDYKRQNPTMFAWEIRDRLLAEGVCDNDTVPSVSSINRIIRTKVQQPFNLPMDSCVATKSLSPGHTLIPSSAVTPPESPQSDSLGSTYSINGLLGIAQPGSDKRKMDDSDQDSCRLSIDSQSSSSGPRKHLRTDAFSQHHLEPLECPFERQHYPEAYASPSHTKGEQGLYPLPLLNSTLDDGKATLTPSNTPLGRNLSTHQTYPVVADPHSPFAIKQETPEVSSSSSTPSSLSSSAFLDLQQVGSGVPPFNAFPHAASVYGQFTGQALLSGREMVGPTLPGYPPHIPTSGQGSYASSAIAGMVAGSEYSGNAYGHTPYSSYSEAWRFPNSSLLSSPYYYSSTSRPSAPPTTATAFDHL

[5] = rise of 4N DNA cells, HeLa – IC50, dose response (AID 1117351); type: functional, cell-based
Genome polyprotein = Genome polyprotein (dengue virus type 2, UniProt P29990); test: flavivirus cap methylation enzyme inhibition – biochemical, confirmation dose response, primary screen (AID 588689); type: functional
Chain of Genome polyprotein (P29990 2492-3391 limits assumed): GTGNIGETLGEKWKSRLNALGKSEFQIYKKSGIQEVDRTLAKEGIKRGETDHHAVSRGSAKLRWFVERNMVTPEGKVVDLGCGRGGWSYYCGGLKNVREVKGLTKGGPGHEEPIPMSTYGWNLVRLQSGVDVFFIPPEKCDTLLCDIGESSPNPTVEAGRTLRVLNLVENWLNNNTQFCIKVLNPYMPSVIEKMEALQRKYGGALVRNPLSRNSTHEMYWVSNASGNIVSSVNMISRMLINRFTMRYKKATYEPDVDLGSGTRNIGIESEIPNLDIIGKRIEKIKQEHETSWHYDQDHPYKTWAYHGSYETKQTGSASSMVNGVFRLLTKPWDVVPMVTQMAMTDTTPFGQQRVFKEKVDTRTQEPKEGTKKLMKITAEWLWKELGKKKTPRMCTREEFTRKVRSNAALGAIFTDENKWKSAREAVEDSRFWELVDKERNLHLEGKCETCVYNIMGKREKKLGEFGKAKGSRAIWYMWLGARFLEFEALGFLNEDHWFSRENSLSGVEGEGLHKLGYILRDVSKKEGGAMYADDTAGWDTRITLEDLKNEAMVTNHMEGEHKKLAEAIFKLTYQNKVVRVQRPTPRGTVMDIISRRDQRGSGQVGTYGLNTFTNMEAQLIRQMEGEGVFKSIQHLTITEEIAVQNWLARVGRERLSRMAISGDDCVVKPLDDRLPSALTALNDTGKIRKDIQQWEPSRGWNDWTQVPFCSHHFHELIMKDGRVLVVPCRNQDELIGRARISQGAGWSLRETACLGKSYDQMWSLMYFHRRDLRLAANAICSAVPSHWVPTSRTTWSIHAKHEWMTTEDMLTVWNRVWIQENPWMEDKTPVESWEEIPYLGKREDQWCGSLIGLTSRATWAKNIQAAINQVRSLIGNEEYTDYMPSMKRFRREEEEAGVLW

[6] = biological target: Glucose-6-phosphate 1-dehydrogenase (Homo sapiens, UniProt P11413); test: inhibition of Homo sapiens G6PD, dose series – biochemical, fluorescence, selectivity assay for P. falciparum G6PD inhibitor project, dose response (AID 504792); type: functional
Chain of Glucose-6-phosphate 1-dehydrogenase (P11413 whole entry): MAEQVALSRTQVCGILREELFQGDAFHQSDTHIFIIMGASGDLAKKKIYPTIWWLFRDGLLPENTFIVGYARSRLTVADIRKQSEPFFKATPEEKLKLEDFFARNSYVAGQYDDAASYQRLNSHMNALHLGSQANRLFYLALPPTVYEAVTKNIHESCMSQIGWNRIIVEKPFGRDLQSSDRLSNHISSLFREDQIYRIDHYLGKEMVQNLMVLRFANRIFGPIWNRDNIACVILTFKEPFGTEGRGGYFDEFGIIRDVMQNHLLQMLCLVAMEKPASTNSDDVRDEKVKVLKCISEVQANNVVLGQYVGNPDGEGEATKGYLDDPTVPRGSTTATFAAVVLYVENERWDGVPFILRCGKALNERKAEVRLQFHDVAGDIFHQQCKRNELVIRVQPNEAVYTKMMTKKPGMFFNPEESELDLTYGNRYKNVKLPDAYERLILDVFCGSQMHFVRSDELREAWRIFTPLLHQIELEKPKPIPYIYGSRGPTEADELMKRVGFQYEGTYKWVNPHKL

Large T antigen = Large T antigen (Simian virus 40, UniProt P03070); type: functional, Betapolyomavirus macacae;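 also: Confirmatory-stage PubChem screen for compounds that inhibit SV40 T antigen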
Chain of Large T antigen (P03070 whole entry): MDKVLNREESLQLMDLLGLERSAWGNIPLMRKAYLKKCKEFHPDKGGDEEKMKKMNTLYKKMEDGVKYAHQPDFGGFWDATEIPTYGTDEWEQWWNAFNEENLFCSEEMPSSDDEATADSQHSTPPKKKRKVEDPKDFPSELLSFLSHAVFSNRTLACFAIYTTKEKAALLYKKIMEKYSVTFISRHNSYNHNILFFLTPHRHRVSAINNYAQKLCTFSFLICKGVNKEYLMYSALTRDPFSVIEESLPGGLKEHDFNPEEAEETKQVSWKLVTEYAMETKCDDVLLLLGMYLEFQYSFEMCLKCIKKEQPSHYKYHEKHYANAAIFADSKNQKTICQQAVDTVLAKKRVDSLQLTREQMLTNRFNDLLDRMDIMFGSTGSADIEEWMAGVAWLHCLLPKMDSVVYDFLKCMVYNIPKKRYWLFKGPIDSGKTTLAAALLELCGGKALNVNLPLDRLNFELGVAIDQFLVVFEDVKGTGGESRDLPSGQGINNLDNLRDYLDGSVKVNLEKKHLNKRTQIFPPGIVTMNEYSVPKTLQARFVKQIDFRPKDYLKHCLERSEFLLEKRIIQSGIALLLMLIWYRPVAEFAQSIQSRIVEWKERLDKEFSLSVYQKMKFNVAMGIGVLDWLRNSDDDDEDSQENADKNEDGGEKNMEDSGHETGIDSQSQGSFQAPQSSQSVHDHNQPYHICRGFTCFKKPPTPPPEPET

Caspase-6 = biological target: T3, Caspase-6 (Homo sapiens, UniProt P55212); test: inhibition of CASP6 peptide cleavage – biochemical, VEID-R110 fluorescence, cherry-pick, dose response (AID 720632)
T3 sequence (P55212 whole entry): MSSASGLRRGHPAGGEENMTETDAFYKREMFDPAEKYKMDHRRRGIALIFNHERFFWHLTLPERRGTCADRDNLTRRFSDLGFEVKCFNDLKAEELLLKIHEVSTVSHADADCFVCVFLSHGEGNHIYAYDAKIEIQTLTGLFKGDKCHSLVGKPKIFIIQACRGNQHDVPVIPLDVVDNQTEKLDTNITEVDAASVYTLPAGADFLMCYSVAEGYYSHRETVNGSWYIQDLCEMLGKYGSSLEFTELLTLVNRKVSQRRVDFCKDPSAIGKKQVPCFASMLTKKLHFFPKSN

[7] = biological target: T4, Histone-lysine N-methyltransferase NSD2 (Homo sapiens, UniProt O96028); type: biochemical
T4 sequence (O96028 whole entry): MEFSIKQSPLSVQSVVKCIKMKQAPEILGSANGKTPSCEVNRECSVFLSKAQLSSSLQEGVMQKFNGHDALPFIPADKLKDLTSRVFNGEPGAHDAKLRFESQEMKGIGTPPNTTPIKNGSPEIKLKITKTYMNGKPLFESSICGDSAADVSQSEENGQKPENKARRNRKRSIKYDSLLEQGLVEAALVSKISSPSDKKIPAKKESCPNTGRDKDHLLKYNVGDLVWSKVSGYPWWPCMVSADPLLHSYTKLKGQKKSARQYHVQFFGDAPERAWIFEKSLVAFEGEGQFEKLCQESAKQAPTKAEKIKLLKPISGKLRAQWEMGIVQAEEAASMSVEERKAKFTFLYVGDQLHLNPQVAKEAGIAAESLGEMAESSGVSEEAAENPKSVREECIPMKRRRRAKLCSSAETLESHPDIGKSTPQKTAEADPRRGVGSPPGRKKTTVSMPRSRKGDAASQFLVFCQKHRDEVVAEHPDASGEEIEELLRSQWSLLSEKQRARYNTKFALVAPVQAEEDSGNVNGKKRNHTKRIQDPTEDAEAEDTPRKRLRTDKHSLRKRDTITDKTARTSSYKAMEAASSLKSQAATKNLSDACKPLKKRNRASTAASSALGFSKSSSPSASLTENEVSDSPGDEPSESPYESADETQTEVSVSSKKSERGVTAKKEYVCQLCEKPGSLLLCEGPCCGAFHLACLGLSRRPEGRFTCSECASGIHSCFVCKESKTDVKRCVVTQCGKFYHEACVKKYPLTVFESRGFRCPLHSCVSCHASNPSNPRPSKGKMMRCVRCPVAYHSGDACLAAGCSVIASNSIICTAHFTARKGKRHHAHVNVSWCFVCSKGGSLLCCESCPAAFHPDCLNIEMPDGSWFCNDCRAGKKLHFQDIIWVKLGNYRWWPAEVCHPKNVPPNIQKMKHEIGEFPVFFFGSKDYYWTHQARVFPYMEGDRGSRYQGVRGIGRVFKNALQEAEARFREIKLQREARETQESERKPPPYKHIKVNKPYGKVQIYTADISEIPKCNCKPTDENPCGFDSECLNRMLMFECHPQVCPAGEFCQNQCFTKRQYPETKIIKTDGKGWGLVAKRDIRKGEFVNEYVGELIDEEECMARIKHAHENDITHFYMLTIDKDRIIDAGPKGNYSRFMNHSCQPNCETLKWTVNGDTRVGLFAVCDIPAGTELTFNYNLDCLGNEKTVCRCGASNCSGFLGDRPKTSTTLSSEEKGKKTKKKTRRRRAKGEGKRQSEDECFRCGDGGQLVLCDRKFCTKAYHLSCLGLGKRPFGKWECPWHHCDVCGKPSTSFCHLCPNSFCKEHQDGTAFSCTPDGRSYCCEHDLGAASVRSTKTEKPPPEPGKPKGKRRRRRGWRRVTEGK

[8] = viability loss in THP-1 monocytes – THP-1 cells, cytotoxicity control for Vif-APOBEC3G degradation inhibitor project, dose response (AID 1117359); type: functional; conditions: THP-1
Protein Tat = biological target: T5, Protein Tat (Human immunodeficiency virus type 1 group M subtype B (isolate HXB2)(HIV-1), UniProt P04608); type: functional;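 also: tat binding to TAR RNA read out by fluorescence polarization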
T5 sequence (P04608 whole entry): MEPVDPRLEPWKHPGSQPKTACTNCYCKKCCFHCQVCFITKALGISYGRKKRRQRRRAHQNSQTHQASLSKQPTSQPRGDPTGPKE

[9] = OVCAR8 cell viability loss – plate reader, dry powder samples, PAX8 project, dose response (AID 743197); type: functional, cell-based; conditions: OVCAR-8
[10] = OVCAR-3 cell viability loss – plate reader, dry powder samples, PAX8 inhibitor project, dose response (AID 743044); type: functional, cell-based
[11] = fluconazole-exposed Candida albicans growth modulators – fluorescence, retest, confirmation (AID 2467); type: functional, cell-based
[12] = biological target: T6, Heat shock factor protein 1 (Mus musculus, UniProt P38532); test: decrease of HSF1-responsive luciferase luminescence – cell-based, NIH3T3, dose retest, confirmation (AID 2382); type: functional;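 also: NIH3T3 fibroblasts with HSF1-driven luciferase reporter stressed by proteasome inhibitor MG132; luminescence from HSF1-driven luciferase expression after 8 hours of MG132 stress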
T6 sequence (P38532 whole entry): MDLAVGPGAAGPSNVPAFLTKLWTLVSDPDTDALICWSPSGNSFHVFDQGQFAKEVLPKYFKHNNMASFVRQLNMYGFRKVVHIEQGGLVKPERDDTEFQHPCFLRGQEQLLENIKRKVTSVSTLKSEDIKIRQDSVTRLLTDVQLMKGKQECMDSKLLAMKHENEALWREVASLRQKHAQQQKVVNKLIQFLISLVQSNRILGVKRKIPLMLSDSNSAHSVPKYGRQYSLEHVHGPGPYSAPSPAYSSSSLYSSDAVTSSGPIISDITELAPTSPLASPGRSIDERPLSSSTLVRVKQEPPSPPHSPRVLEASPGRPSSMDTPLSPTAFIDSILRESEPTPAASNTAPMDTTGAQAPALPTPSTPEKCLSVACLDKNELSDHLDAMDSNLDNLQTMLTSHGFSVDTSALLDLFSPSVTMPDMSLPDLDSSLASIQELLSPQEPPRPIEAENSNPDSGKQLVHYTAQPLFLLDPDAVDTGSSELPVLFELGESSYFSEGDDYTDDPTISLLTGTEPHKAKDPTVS

Streptokinase A = biological target: T7, Streptokinase A (Streptococcus pyogenes serotype M1, UniProt P10520); test: viability-normalized secreted streptokinase activity reduction – plasminogen activation absorbance, OD405, dose response (AID 1914); type: functional, Streptococcus pyogenes M1 GAS;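 also: secreted streptokinase activity via plasminogen activation per viability signal from cell pellet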
T7 sequence (P10520 whole entry): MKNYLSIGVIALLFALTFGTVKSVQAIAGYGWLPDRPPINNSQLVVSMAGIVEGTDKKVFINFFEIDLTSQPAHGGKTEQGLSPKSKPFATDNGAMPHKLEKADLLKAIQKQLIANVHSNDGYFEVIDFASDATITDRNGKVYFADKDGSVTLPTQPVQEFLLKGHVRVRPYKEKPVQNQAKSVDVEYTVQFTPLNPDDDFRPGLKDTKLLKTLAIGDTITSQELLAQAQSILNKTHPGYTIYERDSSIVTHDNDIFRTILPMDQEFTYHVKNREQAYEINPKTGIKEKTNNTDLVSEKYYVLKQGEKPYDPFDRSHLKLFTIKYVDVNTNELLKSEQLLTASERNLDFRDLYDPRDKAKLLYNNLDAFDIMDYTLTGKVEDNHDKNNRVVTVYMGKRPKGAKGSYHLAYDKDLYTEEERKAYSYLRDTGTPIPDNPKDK

[13] = test system: Streptococcus sp. 'group A'; test: Streptococcus pyogenes SK(-)GAS viability under kanamycin – luminescence, BacTiterGlo, confirmation, counter-screen for streptokinase expression inhibitor project, dose response (AID 1900); type: functional, organism-based
Streptococcus = test: GAS UMAA2166 growth inhibition – luminescence, BacTiterGlo, counter-screen for streptokinase expression inhibitor project, dose response (AID 1915); type: functional, organism-based;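 also: potency for reduction of bacterial viability or growth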
[14] = NIH-3T3 fibroblast cytotoxicity, dose response, cytotoxicity control, cell-based, fluorescence, Alamar Blue, secondary assay (AID 2327); type: functional;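 also: NIH-3T3 mouse fibroblasts cultured with fluconazole at 8 µg/mL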

Compound: Fc1ccc(-c2nc3n(n2)Cc2ccccc2-3)cc1
- EC50 [1]: > 67.6 µM (inactive)
- EC50 (cells): > 67.6 µM (inactive)
- IC50 [2]: > 67.6 µM (inactive)
- EC50 [3]: > 67.6 µM (inactive)

Compound: O=C(/C=C/c1cccs1)N1CCc2ccccc21
- EC50 [1]: > 67.5 µM (inactive)
- EC50 (cells): > 67.5 µM (inactive)
- IC50 (Protein skinhead-1): > 100 µM (inactive)
- IC50 [2]: > 67.5 µM (inactive)
- EC50 [3]: > 67.5 µM (inactive)

Compound: O=C(O)c1cccc(N2C(=O)c3ccc(C(=O)c4cccc([N+](=O)[O-])c4)cc3C2=O)c1
- EC50 [1]: > 67.5 µM (inactive)
- IC50 [2]: > 67.5 µM (inactive)

Compound: CN(C)N=Nc1[nH]cnc1C(N)=O
- IC50 [4]: > 10 µM (inactive)
- AC50 (Paired box protein Pax-8): 5.34 µM (active)
- IC50 [5]: > 10 µM (inactive)

Compound: O=C1NC(=O)N(c2ccccc2)C(=O)/C1=C/c1ccc([N+](=O)[O-])s1
- IC50 (Genome polyprotein): 20.4 µM (active)
- IC50 [6]: 76.7 µM (inactive)
- IC50 (Large T antigen): 59.3 µM (active)
- AC50 (Caspase-6): 33.3 µM (active)
- AC50 [7]: > 20 µM (inactive)

Compound: CC(C)(C)OC(=O)N(Cc1ccccc1)Cc1cccc(OCc2cccc(NC(=O)c3ccccc3)c2)c1
- CC50 [8]: > 40 µM (active)
- IC50 (Protein Tat): > 100 µM (active)

Compound: COc1ccccc1NC(=O)N1CCCCN2[C@H](C1)[C@@H](c1ccc(-c3cccc(C#N)c3)cc1)[C@@H]2CO
- AC50 (Paired box protein Pax-8): 11.6 µM (active)
- AC50 [9]: > 70 µM (inactive)
- AC50 [10]: 23.2 µM (active)

Compound: CC(=O)[C@]1(O)Cc2c(O)c3c(c(O)c2[C@@H](O[C@H]2C[C@H](N)[C@H](O)[C@H](C)O2)C1)C(=O)c1ccccc1C3=O [IDARUBICIN HYDROCHLORIDE]
- IC50 [4]: 0.0111 µM (active)
- EC50 [11]: > 38 µM (not active)
- EC50 [12]: 3.01 µM (inconclusive)
- EC50 (Streptokinase A): > 150 µM (not active)
- EC50 [13]: 1.07 µM (active)
- EC50 (Streptococcus): 2.6 µM (active)
- IC50 [5]: > 10 µM (inactive)
- EC50 [14]: 0.178 µM (inconclusive)
